In PubChem BioAssay (NCI):
Where “and” joins values, the source holds several entries; their conditions need not be identical. Equal values may be shown once.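 Test compounds were applied to cells in 96-well plates for 48 hours at 5 doses. The concentration for 50% growth inhibition is given as GI50. Definition used: TGI = concentration required for complete inhibition of growth.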

What was measured:
Test in all cases: inhibition of tumour cell growth, NCI panel, 48 h
[1] = tested on: CCRF-CEM leukemia
[2] = tested on: COLO 205 colon
[3] = tested on: HCT-15 colon
[4] = tested on: HOP-62 NSCLC
[5] = tested on: M14 melanoma
[6] = tested on: OVCAR-8 ovarian
[7] = tested on: UACC-62 melanoma
[8] = tested on: BT-549 breast
[9] = tested on: MDA-MB-435
[10] = tested on: T-47D breast

| Compound | TGI [1] | TGI [2] | TGI [3] | TGI [4] | TGI [5] | TGI [6] | TGI [7] | GI50 [1] | GI50 [2] | GI50 [3] | GI50 [5] | GI50 [7] | GI50 [8] | TGI [8] | GI50 [4] | GI50 [9] | TGI [9] | GI50 [6] | GI50 [10] | TGI [10] |
| --- | --- | --- | --- | --- | --- | --- | --- | --- | --- | --- | --- | --- | --- | --- | --- | --- | --- | --- | --- | --- |
| O=C1Cc2ccccc2CCc2ccccc21 | > 100 µM | > 100 µM | > 100 µM | > 100 µM | > 100 µM | > 100 µM | > 100 µM |  |  |  |  |  |  |  |  |  |  |  |  |  |
| O=C(NOC(=O)c1ccc([N+](=O)[O-])cc1)c1ccc(Cl)cc1 | > 100 µM | > 100 µM | > 100 µM | > 100 µM | > 100 µM | > 100 µM | > 100 µM |  |  |  |  |  |  |  |  |  |  |  |  |  |
| COC(=O)Cc1cc(=O)oc2c1C(=O)CCC2 | > 100 µM | > 100 µM | > 100 µM | > 100 µM | > 100 µM | > 100 µM | > 100 µM |  |  |  |  |  |  |  |  |  |  |  |  |  |
| COc1cc(-c2nn3c(=O)n(-c4ccc(Cl)cc4)c(=O)nc3s2)cc(OC)c1OC | > 100 µM | > 100 µM | > 100 µM | > 71.9 µM | 50 µM and > 100 µM | > 100 µM | > 100 µM | > 5000 nM | > 50 µM | > 50000 nM | 28000 nM | > 100000 nM |  |  |  |  |  |  |  |  |
| O=C1OC(c2ccc(Cl)c3ccccc23)c2ccccc21 (stereo not drawn) | > 100 µM | > 100 µM | > 100 µM | > 100 µM | > 100 µM | > 100 µM | > 100 µM |  |  |  |  |  |  |  |  |  |  |  |  |  |
| CCCCCCCCCCCCCCCCCCNC(=O)[C@H]1CSC(c2ccc(F)c(OC)c2)N1 (stereo partly drawn) | 1.74 µM |  |  | 1.6 µM | 1.47 µM | 2.7 µM | 1.28 µM | 284 nM |  |  | 713 nM | 639 nM | 974 nM | 1850 nM | 843 nM | 518 nM | 1200 nM | 976 nM | 604 nM | 1460 nM |
| COc1cc(/C=C2/C(=O)N(C(=O)c3ccccc3O)N=C2C)ccc1O | > 100 µM | > 80.7 µM | > 100 µM | > 38.9 µM | 35.3 µM | > 100 µM | 0.364 µM |  |  |  |  |  |  |  |  |  | > 100000 nM |  |  | > 100000 nM |
| CCCCCCCCCCCCNC(=O)[C@H]1CSC(c2ccsc2)N1 (stereo partly drawn) |  | 15.9 µM | 1.69 µM | 1.62 µM | 1.63 µM | 2.26 µM | 1.82 µM |  | 7.95 µM | 883 nM | 855 nM | 929 nM | 797 nM | 1580 nM | 873 nM | 680 nM | 1350 nM | 1110 nM | 976 nM | 2020 nM |
| C(/C=C/N1CCCC1)=C\c1nc(N2CCCC2)c2ccccc2n1 | 50.1 µM | 28.5 µM | 32.5 µM | 35.2 µM | 33.5 µM | > 100 µM | 44.1 µM |  |  |  |  |  |  |  |  |  |  |  |  |  |
| C=C1C(=O)C23CC1CCC2C12CO[C@@]3(O)[C@@H](O)C1C(C)(C)C=CC2=O (stereo partly drawn) |  | 1.86 µM and 10.1 µM | 1.86 µM and 3.65 µM | 14.4 µM and 67.2 µM | 6.1 µM |  | 2.37 µM and 19.3 µM | 759 nM | 3.18 µM | 1810 nM |  | 4890 nM |  |  | 25200 nM |  | 11100 nM | 3370 nM |  | 33100 nM |
